Measurements from PMC12147355, “Targeted destruction of follicle stimulating hormone receptor-positive cancer cells in vitro and in vivo by a lytic peptide Phor21-FSHβ conjugate” (Molecular Medicine, 2025).
Read-outs that look alike come from different tables or passages of the source. Ends that are not written are not given here.

Tests used:
[1] = system: LNCaP xenografts; experiment: LNCaP cell xenografts in athymic nude male mice; assay type: in vivo; conditions: Phor21 8 mg/kg/72 h, Phor21-FSHβ 2 or 8 mg, 21 days; for growth of LNCaP xenografts (total xenograft volume at necropsy): CTX 5 mg/kg/48h, n = 10–12
Source text: (§1) All the mouse experiments were approved by the local ethics committee of the Medical University of Bialystok, Poland. Athymic nude males (Crl: NU(NCr)-Foxn1^nu, 8–10 weeks old, 20–23 g) purchased from Charles River Laboratories International, Inc. (Sulzfeld, Germany; RRID: SCR_003792) were housed two or three per cage and provided with sterilized pellet chow and water. The animals were maintained in a pathogen-free mouse colony at the Center of Experimental Medicine Animal Facility (Bialystok, Poland).
(§2) HEK293-FSHR, HEK-293, and LNCaP cells were treated with trypsin when they were nearly confluent and were harvested. The cells were centrifuged at 1100 rpm for 5 min and resuspended in sterile non-supplemented culture medium mixed 1:1 with the Matrigel® matrix (Corning, Corning, USA). The cell suspension (1 × 10^6 cells/0.2 ml - HEK293-FSHR and HEK-293 cells; 5 × 10^6 cells/0.2 ml – LNCaP cells) was injected subcutaneously into the interscapulum area. When the xenograft volume reached 150–200 mm^3 (5–8 days after implantation), the xenograft-bearing mice were randomly divided into treatment groups, as described in Suppl Table 2.
Three independent xenograft experiments were conducted. In the first set, we tested whether the Phor21-FSHβ33–53 C/S conjugate selectively targeted and destroyed FSHR-expressing HEK293-FSHR cells, using a proof-of-concept experiment. CTX was used to inhibit FSH secretion, which competed with Phor21-FSHβ33–53 C/S for FSHR-binding sites (Suppl Table 2). In the second set of experiments, we tested the specificity of the Phor21-FSHβ33–53 C/S conjugate using FSHR-negative HEK293 cells xenografted into nude mice (Suppl Table 2). Finally, in the third set of in vivo experiments, we tested whether Phor21-FSHβ33–53 C/S conjugate treatment could inhibit the growth of human prostate cancer LNCaP cell xenografts (FSHR-negative cells) by destroying FSHR-positive endothelial cells in xenograft tissues, as reported previously (Radu et al. [2010]) (Suppl Table 2). Phor21-FSHβ33–53 C/S was later on addressed as Phor21-FSHβ. […]

[2] = mouse, in vivo
Experimental: (§6) In each experimental set, the mice were sacrificed 3 days after the last injection. Total blood was collected via heart puncture under isoflurane anesthesia. The animals were euthanized by cervical dislocation. Body weight, selected organs, xenograft weights/volumes, and sizes were recorded at the time of necropsy. The xenografts and testes were fixed in 10% neutral buffered formalin or snap-frozen in liquid nitrogen for further experiments.

[3] = Body and organ weights at necropsy; conditions: nude males xenografted with HEK293-FSHR cells, Fig. S4
Experimental: as §6

[4] = system: HEK-293 xenografts; experiment: HEK-293 (FSHR-negative) cell xenografts in athymic nude male mice; assay type: in vivo; conditions: 8 mg/kg/72 h, 21 days, n = 8–12
Source text: as §1, §2
(§3) Three independent xenograft experiments were conducted. In the first set, we tested whether the Phor21-FSHβ33–53 C/S conjugate selectively targeted and destroyed FSHR-expressing HEK293-FSHR cells, using a proof-of-concept experiment. […]

[5] = system: HEK293-FSHR cells; experiment: Caspase Glo 3/7 apoptosis assay, HEK293-FSHR cells; assay type: cell-based, human; conditions: CTX 20 µM, 12 h
Experimental: (§4) Caspase 3/7 activity was assessed using a Caspase Glo 3/7 kit (Promega) according to the manufacturer’s protocol. In brief, cells were seeded at 10,000/well in a 96-well plate, attached overnight, and treated with vehicle (CTR) or CTX (20 µM) for 12 h. Staurosporin (STS, 0.5 µM) was used as a positive inducer of caspase3/7-mediated apoptosis. The absolute luminescence was normalized to the vehicle-treated control value.

[6] = system: LNCaP cells; experiment: Caspase Glo 3/7 apoptosis assay, LNCaP cells; assay type: cell-based, human; conditions: CTX 20 µM, 12 h
Experimental: as §4

[7] = system: FSH; experiment: Plasma FSH immunofluorometric assay in xenografted mice; assay type: in vivo; conditions: CTX 5 mg/kg/48h
Experimental: The plasma levels of FSH were analyzed via an immunofluorometric assay using the Delfia Enhancer system (PerkinElmer, Turku, Finland) according to the protocol described by van Casteren et al. (Casteren et al. [2000]). The FSH assay sensitivity was 0.1 µg/L, with an intra-assay CV of 4.3% and an interassay CV of 9.8% at 4.8 µg/L. The rat FSH standard (a gift from Dr. Albert Parlow from the National Institute of Diabetes and Digestive and Kidney Diseases, Bethesda, Maryland, USA) was diluted in Diluent II buffer (DELFIA Diluent II, PerkinElmer) to concentrations ranging from 50 ng/ml to 0.02 ng/ml for rat FSH. Enhanced fluorescence signals (DELFIA Enhancement Solution; PerkinElmer) were measured using a Victor^2 fluorometer (PerkinElmer).

[8] = system: HEK-293 cells; experiment: CyQUANT cell proliferation assay, HEK-293 cells; assay type: cell-based, human; conditions: CTX 1, 5, 10, or 20 µM, 48 h; three independent experiments (n = 8/experiment)
Experimental: (§5) Cell proliferation was determined using a CyQUANT Cell Proliferation Assay (C7026, Life Technologies, Thermo Fisher Scientific). Prior to the experiments, HEK-293, HEK293-FSHR, and LNCaP cells were seeded in 96-well plates (7000 cells/well). After overnight incubation in the culture medium, the cells were starved for 4 h in basal non-supplemented DMEM/F12. […] After incubation, the medium was removed, and the plates with cells were frozen at −80 °C overnight. After thawing at room temperature (RT), 200 µl of CyQUANT GR dye/cell lysis buffer was added to each well and incubated for 5 min at room temperature (RT) in the dark. The fluorescence was read using a WALLAC Victor 2 1420 spectrophotometer (Perkin Elmer, Waltham, Massachusetts, USA) with ~ 480 nm excitation and ~ 520 nm emission maxima. The results were subtracted from a standard curve made from bacteriophage λ DNA (ranging from 50 pg/ml to 1.0 µg/ml) in CyQUANT GR/cell lysis buffer and are presented as absolute values.

[9] = system: HEK293-FSHR cells; experiment: CyQUANT cell proliferation assay, HEK293-FSHR cells; assay type: cell-based, human; conditions: CTX 1, 5, 10, or 20 µM, 48 h; three independent experiments (n = 8/experiment)
Experimental: Cell proliferation was determined using a CyQUANT Cell Proliferation Assay (C7026, Life Technologies, Thermo Fisher Scientific). […] After overnight incubation in the culture medium, the cells were starved for 4 h in basal non-supplemented DMEM/F12. The cells were then treated for 48 h with rhFSH (10, 100, or 1000 IU/L) or cetrorelix (CTX) (1, 5, 10, or 20 µM; Sigma-Aldrich), and 2.5% FSC was used as a positive control. After incubation, the medium was removed, and the plates with cells were frozen at −80 °C overnight. After thawing at room temperature (RT), 200 µl of CyQUANT GR dye/cell lysis buffer was added to each well and incubated for 5 min at room temperature (RT) in the dark. The fluorescence was read using a WALLAC Victor 2 1420 spectrophotometer (Perkin Elmer, Waltham, Massachusetts, USA) with ~ 480 nm excitation and ~ 520 nm emission maxima.

[10] = system: LNCaP cells; experiment: CyQUANT cell proliferation assay, LNCaP cells; assay type: cell-based, human; conditions: CTX 1, 5, 10, or 20 µM, 48 h; three independent experiments (n = 8/experiment)
Experimental: as §5

[11] = system: HEK-293 cells; experiment: Caspase Glo 3/7 apoptosis assay, HEK-293 cells; assay type: cell-based, human; conditions: CTX 20 µM, 12 h
Experimental: as §4

[12] = Serum biochemical assay (Fuji Dri-Chem NX500); assay type: in vivo; conditions: HEK293-FSHR xenograft mice (n=8-9); Fig S7
Experimental: To quantify the serum levels of glucose, γ-glutamyltransferase (GGT), alanine aminotransferase (ALT) and aspartate aminotransferase (AST), biochemical assays were performed using Fuji Dri-Chem NX500 (Fujifilm Corporation®) according to the manufacturer’s instructions (Lei et al. [2021]).

[13] = system: HEK293-FSHR xenografts; experiment: HEK293-FSHR cell xenografts in athymic nude male mice; assay type: in vivo
Source text: as §1, §2, §3

Row | Substance | histology of LNCaP xenografts [1] | growth of LNCaP xenografts (total xenograft volume at necropsy) [1] | spleen weight / size [2] | body weight [3] | testis weight [3] | growth of HEK-293 xenografts (total xenograft volume at necropsy) [4] | caspase 3/7 activity in HEK293-FSHR cells [5] | caspase 3/7 activity in LNCaP cells [6] | FSH secretion (plasma FSH levels) ([7]; mice with HEK293-FSHR xenografts) | FSH secretion (plasma FSH levels) ([7]; mice with LNCaP xenografts) | proliferation of HEK-293 cells [8] | proliferation of HEK293-FSHR cells [9] | spleen weight / size [3] | proliferation of LNCaP cells [10] | caspase 3/7 activity in HEK-293 cells [11] | serum ALT vs CTR group [12] | serum AST vs CTR group [12] | serum GGT vs CTR group [12] | histopathological analysis of xenograft tissues ([13]; histology, PARP1 staining) | xenograft growth compared with the control group (total xenograft volume at necropsy) ([13]; nude male mice, Phor21 8 mg/kg/72 h, Phor21-FSHβ 2 or 8 mg/kg/72 h, CTX 5 mg/kg/48h, 21 days, n = 10–12)
1 | KFAKFAKKFAKFAKKFAKFAK-NH2 [Phor21, lytic peptide Phor21 backbone, triple heptade KFAKFAK] | no changes | no changes | No significant differences | No significant differences | No significant differences | did not affect the growth |  |  |  |  |  |  |  |  |  |  |  |  |  | 
2 | cetrorelix [CTX] |  | inhibited xenograft growth |  |  | significantly reduced |  | activated | activated | significantly decreased | inhibited FSH secretion | dose-dependently decreased | dose-dependently decreased | increased | dose-dependently decreased | activated | did not affect | did not affect | did not affect | apoptosis | reduced xenograft growth
